The values below come from a melting point compilation (Tetko et al.; mined from patent text by program, amines drawn as free bases though some values may be those of a salt).

Molecules are shown by their SMILES.

As to `COc1ccc(C(=O)O)cc1OC1CC=CC1`, the melting point is 171 to 173 °C. `CCOc1ccc(C(=O)Nc2ccccc2NC(=O)c2cccc(C(N)=NO)c2)cc1`: the melting point was in the range of 180 to 182 °C.

The compound `Nc1ccc(C(=O)c2ccccc2)c(Br)c1` returned a melting point of 157 to 160 °C. With `CCOC(=O)c1cc2ccc(Cl)c(NS(=O)(=O)c3cccs3)c2[nH]1` the figure was 191 to 192 °C; with `Cc1nc(=O)n(COc2ccccc2)c(C)c1Br`, 120 °C; with `Cc1cc2cn[nH]c2c(C(=O)NC2(C3CC3)CC2)c1NC(=O)c1cc(OCC(F)(F)F)nn1-c1ncccc1Cl`, 240 to 242 °C.

For `COc1ccn2c(Cl)c(CCc3ccc4nc(N)oc4c3)nc2c1`, the melting point lay in the range of 225 to 227 °C. With `Clc1cnnc(Cl)c1Cl` the figure was 61 °C; with `N#Cc1cc(Cc2cccc(Cl)c2)ccc1N`, 84.5 to 85.5 °C. `ClCCOc1ccc2ccccc2c1` came in with a melting point of 94 °C. As to `C=CCc1cc(C=CC(=O)O)ccc1OC(C)=O`, the melting point fell in the range of 143 to 144 °C.

On to `CC(Oc1cc(Oc2ccc(C(F)(F)F)cc2Cl)ccc1[N+](=O)[O-])C(=O)OCn1cccn1` (stereo unspecified), for which the melting point was 75 °C. `Cn1cc(-c2ccccc2)c(=O)c(-c2cccs2)c1` showed a melting point of 147 to 148 °C. In the case of `CC(=O)n1ccc(N2CCCC2)c1C(=O)c1cccnc1Nc1cccc(Cl)c1`, the melting point is 170 to 173 °C.

The compound `COc1c(Cl)cc(Br)cc1Cl` came in with a melting point of 67 to 68 °C. In the case of `Cc1cc(C(=O)Nc2ccccc2O)cc(C)c1O`, the melting point lay within 142 to 145 °C. With `CN(C)c1ccc2nc(N)c(C#N)c(NCc3ccccc3)c2c1` the figure was 265 °C. The figure for `O=C(CCCl)N(c1ccccc1)C1CCCc2ccccc21` (stereo unspecified) is 78 to 81 °C. With `CCc1oc2ccc([N+](=O)[O-])cc2c1C(=O)c1ccc(O)cc1` the figure was 152 °C.

The compound `COCCc1sc2ncnc(N)c2c1-c1ccc(NS(=O)(=O)c2ccccc2)cc1` showed a melting point of 206 to 208 °C. Regarding `CC(=O)N(Cc1cccs1)C1(c2ccc(Cl)cc2)CCC1`, the melting point was in the range of 105 to 108 °C.

The compound `CC1(C)COC(=O)N1c1nc(-c2ccc(Cl)c(Cl)c2)cs1` returned a melting point of 134 to 137 °C. Compound `C1=Cc2cc3ccccc3cc2CS1` displayed a melting point of 84 °C.

In the case of `CC(C)n1nc(-c2nc(Br)c(N)nc2-c2ccccc2)ccc1=O`, the melting point lay within 204 to 206 °C.

In turn, `Nc1nc(Br)nc2c1ncn2C1OC(CO)C(O)C1F` (stereo unspecified) gave a melting point of 209 to 210 °C. Turning to `Cc1nccn1-c1ccc(COc2cc(F)cc(C3(C(N)=S)CCOCC3)c2)cc1`, the melting point fell in the range of 167 to 170 °C. Consider `O=C(O)CCCCCCCOc1nc(-c2ccccc2)c(-c2ccccc2)n1-c1ccccc1`, for which the melting point fell in the range of 158 to 159 °C. With `CNCCC(=O)N1c2ccccc2N2CCc3cccc(c32)C1C` (stereo unspecified) the figure was 124 to 126 °C; with `O=C(O)C(=O)Nc1cccc(NC(=O)C(=O)O)n1`, above 310 °C. `Cc1cccc(COc2cccc(OCc3coc(-c4cccc(F)c4)n3)c2)c1C(=O)O` came in with a melting point of 152 to 154 °C.

Compound `COc1cc(OC)c2c(=O)[nH]c(-c3ccc(OCCNC(C)C)c(-c4ccc(S(C)(=O)=O)cc4C(F)(F)F)n3)nc2c1` had a melting point of 199 to 201 °C. With `COC(=O)c1nc2n(n1)-c1cc(Cl)ccc1N(c1ccc(Cl)cc1Cl)C2` the figure was 264 to 266 °C; with `CC(C)c1nc(CCOC2=CCC(C(C)(C)C)CC2)n(C)c1Sc1cc(Cl)cc(Cl)c1` (stereo unspecified), 99.5 to 100 °C. For `CC(=O)OCC1=C(C(=O)O)N2C(=O)C(NC(=O)Cc3ccc(CN=[N+]=[N-])cc3)C2SC1` (stereo unspecified), the melting point lay within 135 to 136 °C. In the case of `CCN1N=C(c2ccc(F)cc2)c2cc(F)ccc2CS1(=O)=O`, the melting point lay within 148 to 151 °C. Consider `CCOC(=O)c1c(CN2CCCCC2)nc2cc(OCC)c(OCC)cc2c1-c1ccc(OC)c(OC)c1`, for which the melting point is 154 to 155 °C. Take `Cc1cc(SC2=C(O)CC(CCc3ccc(O)cc3)(C3CCCC3)OC2=O)c(C(C)(C)C)cc1OCCO` (stereo unspecified): the melting point lay within 113 to 115 °C. Consider `COC(=O)C1=C(C)NC2=C(C(=O)OC2)C1c1cccc(Br)c1` (stereo unspecified), for which the melting point was 229 to 231 °C.

`COCN(C(=O)CCl)c1c(OC)cccc1OC` returned a melting point of 104 to 106 °C.

On to `Nc1cc(C=C2OC(=O)c3ccccc32)ccc1F`, for which the melting point is 189 to 191 °C. With `Oc1ccc(-c2cc(O)ccc2-c2cc3cc(O)ccc3o2)cc1` the figure was 238 to 239 °C; with `NC(N)=Nc1nc(-c2csc(CNC(=O)CSCc3ccco3)n2)cs1`, 204 °C; with `COc1ccc2ccc(OC)c3c2c1CCC3CCNC(C)=O` (stereo unspecified), 125 °C.

In turn, `Nc1c(Cl)cc(C(O)CNCCCCCCOCCc2ccccc2)cc1Cl` (stereo unspecified) came in with a melting point of 60 to 63 °C.

`Cc1c(CNC(C)C)ncn1C(c1ccccc1)(c1ccccc1)c1ccccc1` yielded a melting point of 150 to 154 °C.

On to `CCOC(=O)c1csc(-c2ccc3cc(C(=O)OCc4ccccc4)c(C45CC6CC(CC(C6)C4)C5)cc3c2)c1`, for which the melting point was 98 to 100 °C. In the case of `Cc1ccc(N(C)C(=O)CN(C(=O)CNC(=O)Nc2cccc(C)c2)c2ccccc2)cc1`, the melting point was 162 °C. `CCOC(=O)c1c(NC(C)=O)cccc1C(C)=O`: the melting point was found to be 88 °C. `C=CC(=O)OCCNC(=O)C(C)ON(C(C(C)(C)C)P(=O)(OCC)OCC)C(C)(C)C` (stereo unspecified) registered a melting point of 95 to 98 °C.

`COc1ccc(-c2sc3cccnc3c2OC(C)=O)cc1` returned a melting point of 146 to 148 °C. In turn, `C#CCOc1c(Cl)cc(Cl)cc1C(=O)NCC1CCCN1C1CCCCC1` (stereo unspecified) gave a melting point of 84 to 85 °C.

For the compound `CN(C)c1cccc(CSC2NC(=S)NC2(C)C)c1` (stereo unspecified), the melting point was 178 to 179 °C. With `CS(=O)(=O)NCCCCCCCCCCCCn1c2c(c3ccccc3c1=O)C(=O)c1ccccc1-2` the figure was 113 to 117 °C; with `S=C=Nc1ccc2oc(-c3sccc3CN3CCOCC3)nc2c1`, 117 to 118 °C. In the case of `CC(=O)NC1=C(O)CC(C(=O)N(C)C)CC1=O` (stereo unspecified), the melting point fell in the range of 162 to 164 °C.

The compound `O=S(=O)(Oc1ccc2ccccc2c1-c1nnc(Cl)c2ccccc12)C(F)(F)F` came in with a melting point of 54 to 55 °C. On to `COc1cc(-c2ccnc(-c3cn(C)c(=O)n3-c3ccc(C(C)(C)C#N)cc3)c2)ccn1`, for which the melting point was determined as 138 °C. The figure for `CN(C)S(=O)(=O)c1ccc2c(c1)C=C(C(=O)O)C(C(F)(F)F)O2` (stereo unspecified) is 201 to 202 °C. Consider `CSc1cc2c(cc1C(F)(F)F)N(C(=O)Nc1cccc(C(=O)O)c1)CC2`, for which the melting point is above 200 °C. The compound `Cc1nc(CS(=O)(=O)c2cccc(Cl)c2Cl)no1` registered a melting point of 105 to 107 °C. With `C=CCOC(=O)c1ccc(N)cc1O`, the melting point lay in the range of 58 to 59 °C. With `Nc1ccccc1Sc1ccncc1`, the melting point lay in the range of 103 to 107 °C. With `Cc1ccccc1C(=O)Cc1ccncc1` the figure was 118 to 119 °C; with `Nc1cccc(F)c1O`, 115 °C.

`COc1ccc(OC)c(C(=O)Cl)c1` showed a melting point of 36 to 38 °C. Consider `CCn1c(=O)n(OCc2ccccc2)c(=O)c2cc(F)c(N3CCN(C)CC3)cc21`, for which the melting point fell in the range of 134 to 136 °C.

On to `O=C(Nc1ccc(F)cn1)c1ccc(NCc2ccccc2)nc1`, for which the melting point fell in the range of 167 to 168 °C. As to `CC(C)C(=O)CCC(=O)c1ccc(F)cc1`, the melting point is 47 to 49 °C. `Nc1nc(Nc2cccc(Br)c2)c2c(n1)[nH]c1ccccc12` showed a melting point of 234 °C. With `Cc1csc(Nc2nc(C(C)(C)C)c(O)c(C(C)(C)C)n2)n1` the figure was 171 to 173 °C; with `Cc1snc(O)c1C(N)=O`, 248 to 250 °C; with `CCn1ncc2c1ncc1c(=O)n(C)c3ncnn3c12`, 208 to 210 °C. `CNC(=NC#N)NCc1ncc(-c2csc(N=C(N)N)n2)s1` showed a melting point of 258 to 259 °C. Turning to `CCCCCCc1c(C(C)C)nc(C(C)C)c(C(C)O)c1-c1ccc(F)cc1` (stereo unspecified), the melting point lay within 75 to 77 °C. Consider `CC(=O)N1c2ccccc2NC(=O)c2cscc21`, for which the melting point fell in the range of 228 to 230 °C. As for `Cc1cc(Nc2nccc(N3CCC(C)CC3)n2)[nH]n1`, the melting point lay in the range of 193 to 195 °C. In turn, `COc1cc(N2CCCN(C)CC2)ccc1Nc1ncc2ccc(-c3ccccc3N(C)S(C)(=O)=O)n2n1` had a melting point of 98 to 105 °C. With `O=S(=O)(c1ccc2ccccc2c1)N1C[C@@H](S)C[C@@H]1COCc1ccccc1` the figure was 79 to 80 °C; with `CSc1cc(C(F)(F)F)cc(Cl)c1-n1c(Br)nc(Cl)c1S(=O)(=O)C(F)F`, 116 °C. Turning to `COCC(=O)COc1c([N+](=O)[O-])ccc(F)c1F`, the melting point was 39 to 42 °C. Compound `CN1C(=O)C(NC(=O)c2cc3cc(O)ccc3[nH]2)N=C(c2ccccc2)c2ccccc21` (stereo unspecified) came in with a melting point of 120 to 130 °C.

Turning to `O=c1[nH]ncnc2c1ccc1ncnc12`, the melting point lay in the range of 266 to 268 °C. `O=C(O)C(Cc1ccccc1)Cc1ccc([N+](=O)[O-])cc1` (stereo unspecified) returned a melting point of 104 to 105 °C. In turn, `CC(C)c1cc(O)cc2c1C(=O)N(CSc1ccccc1)S2(=O)=O` gave a melting point of 127 to 130 °C. `CCCCC(=O)Nc1cccc2c1C1(COc3cc4c(cc31)OCCO4)C(=O)N2C` (stereo unspecified) yielded a melting point of 182 to 183 °C. Consider `COc1c(NC(=O)CC(C)(C)C)c(C)c(C)c2c1C(c1ccc(C(C)C)cc1)CO2` (stereo unspecified), for which the melting point lay in the range of 161 to 162 °C.

In turn, `O=C(O)c1ccccc1OCCCc1cc(-c2ccc(C(F)(F)F)cc2)no1` gave a melting point of 132 to 133 °C. For `CC1(C)Oc2ccc(C#N)cc2[C@H](N(Cc2ncc[nH]2)c2ccc(Cl)cc2)[C@H]1O`, the melting point is 266 to 267 °C. On to `Fc1cccc(-c2cn([C@H]3CN4CCC3CC4)nn2)c1`, for which the melting point amounted to 120 °C. The figure for `CCCCCCCCCCCCCCCCCC(=O)NC(C)Cc1cccc(C(F)(F)F)c1` (stereo unspecified) is 74 to 76 °C; for `COc1ccc(C(=O)c2ccc([N+](=O)[O-])c(CO)c2)cc1` it is 116 °C.
